Converted amounts (≈) assume the structure as drawn. Where two headings read alike, the source gives them in different places. Marks after values point to notes of the source that are not given here. Positions of bridges follow the written chain, without caps; N, C: chain ends. Residues, ends and D or L forms follow the SMILES beside them. Chains are numbered I, II in the order given. *: point of attachment. Palmitoyl = CCCCCCCCCCCCCCCC(=O)*; Decanoyl = CCCCCCCCCC(=O)*; Octanoyl = CCCCCCCC(=O)* Bounds are passed on as bounds.

Three molecules from patent US20150231199A1, “PEPTIDES AND THEIR USES” (priority 2012, published 2015) can be followed below.

The subject of one data set is Pseudomonas aeruginosa. It is filed as cell-based. The method, then: (§1) V2-dimer and all lipopeptides (FIG. 1A) used in this study were purchased from Mimotopes. All peptides were prepared by dissolving in sterile water to make 1000 μg/mL stock solutions. Minimum Inhibitory Concentration (MIC) determination was carried out in Mueller Hinton Broth (MHB) using the broth macro-dilution method as described by the Clinical and Laboratory Standards Institute (CLSI). Then, cation-adjusted MHB (CA-MHB) was used to prepare serial two fold dilutions of the compounds in test tubes. The concentration of the inoculums suspension was also adjusted to approximately 5×10^5 Colony Forming Units (CFU)/mL using MHB. Bacteria were incubated with the compounds for 24 hours at 35° C. prior to reading. In this study, Gram-positive strains used were Staphylococcus aureus DM4001 and Methicillin-resistant Staphylococcus aureus (MRSA) DM9808. Gram-negative strains used were Klebsiella pneumoniae DM4299, Pseudomonas aeruginosa ATCC23155 and Escherichia coli ATCC27922.
(§2) Methods used are as described in Example 1 above.

The next data set deals with Staphylococcus aureus. The format is cell-based. The method, then:
as §1, §2

Data set [1] concerns Methicillin-resistant Staphylococcus aureus (MRSA). The format is cell-based. The method, then: as §1, §2
The nature of data set [2]: In vivo topical (corneal) toxicity test. To be noted: C57BL6, mouse, topical or ocular, mice, 5 times/day for 4 days, read-out: Tolerate concentration. The method, then:
(§3) Wild type C57BL6 (6-8 weeks old) (20-30 gram weigh) mice purchased from National University of Singapore were used for this study. All animals were utilized after 1 week acclimatization and put in air conditioned rooms with controlled temperature (23±2° C.), 12 hours light-dark cycle and humidity (55-60%). All animals were conducted in compliance with the Association for Research in Vision and Ophthalmology (ARVO) statement for the Use of Animals in Ophthalmic, and Vision Research, the guide for the Care and Use of laboratory animals (National Research Council) and under the supervision of Singhealth Experimental Medical Centre (SEMC). To investigate the corneal toxicity, three normal and healthy wild type mice had been chosen randomly and treated with 1 mg/ml and 3 mg/ml of C8V2D in 10 mM PBS. C8V2D was applied topically 5 times/day for 4 days. Cornea clarity had been checked by slit lamp microscopy for everyday follow-up to day 4 after application. To study the acute systemic toxicity, C8V2D was administrated via intravenous and intraperitoneal routes. Two mice have been chosen for each route and moitored carefully through 24 hours to observe and record any mortality, morbidity or toxicity signs. Gross necropsy would be done on any mortality or moribund animal.

Data set [3] is described as follows: in vitro. It is filed as cell-based. As to conditions: human. As for the experimental part: Cells were plated at a density of 10,000 cells per well in a 96-well opaque white plate (SPL Life Sciences Inc. Korea). Test compounds of various concentrations and controls were added to appropriate wells such that the final volume is 100 μl in each well. After 4 hours of exposure to the test compounds, the plates were removed from 37° C. incubator and equilibrated to 22° C. for 30 minutes. One hundred microliters of CellTiter-Glo reagent (Promega Inc. USA) was added to each well and the ATP assay was performed according to manufacturer's instructions. Luminescence was assessed using a micro-plate reader (Tecan Infinite 200 Pro, Switzerland). The cells exposed to 1% Triton X-100 were used as a positive control. The percent cell viable of each compound was determined using the formula below (L=Luminescence detected):
% Viability=[(Lnegative controls)−(Lexperiments)]/[(Lnegative controls)−(Lpositive controls)]×100

Data set [4] is described as follows: In vivo acute systemic toxicity test. To be noted: C57BL6, mouse, mice, read-out: Tolerate concentration. As for the experimental part:
as §3

Data set [5] in a line: in vitro. It is filed as cell-based. To be noted: human. As for the experimental part: The cytotoxicity of individual compounds screened was determined by the lactate dehydrogenase (LDH) assay. In brief, human corneal fibroblast cells were plated at a density of 10,000 cells per well in a 96-well opaque white plate (SPL Life Sciences Inc). Test compounds of various concentrations and controls were added to appropriate wells such that the final volume is 100 μl in each well. After 4 hours of exposure to the test compounds, the plates were removed from 37° C. incubator and equilibrated to 22° C. for 30 minutes. One hundred microliters of Cyto-TOX One reagent (Promega Inc. USA) was added to each well and the LDH assay was performed according to manufacturer's instructions. Fluorescence was assessed at an excitation wavelength of 560 nm and an emission wavelength of 590 nm using a micro-plate reader (Tecan Infinite 200 Pro, Switzerland). The cells exposed to 1% Triton X-100 were used as a positive control and treated as maximum releasing of LDH. The percent specific cytotoxicity of each compound was determined using the formula below (I=intensity):
% Cytotoxicity=[(Iexperiments)−(Inegative controls)]/[Ipositive controls)−(Inegative controls)]×100
This is another data set of the same source.

Data set [6] relates to red blood cells (RBCs) of New Zealand white rabbits. In words: in vitro. The format is cell-based, rabbit. As for the experimental part:
(§4) Fresh red blood cells (RBCs) of New Zealand white rabbits were used for this experiment. The RBCs obtained were centrifuged at 3000 rpm for 10 min. Supernatant was removed and washed twice with sterile PBS Buffer (20 mM, 100 mM NaCl, pH 7). The RBCs were further diluted to 8% stock solution in PBS. Peptides were dissolved in PBS with desired stock concentrations. When compounds were mixed with RBCs, desired concentration of 4% RBCs was obtained. For C14V2D and C16V2D, they were dissolved in Dimethylformamide ([…]; DMF) with desired stock concentrations. When compounds were mixed with RBCs, desired concentration of 4% RBCs and 0.5% DMF was obtained. DMF concentration of <1% was used as it had negligible hemolytic activity on RBCs. The mixtures were added to 1.5 mL centrifuge tubes and incubated at 37° C. for 1 h. After incubation, the blood was centrifuged at 3000 rpm for 3 min at 4° C. 100 μL of the supernatant was transferred into transparent 96-well plate. The absorbance was measured at 576 nm using a microplate reader (TECAN Infinite 200M Pro). 2% Triton X-100 was used as positive control. PBS was used as negative controls. The amount of hemoglobin released was calculated using the following equation: […]

Data set [7] deals with Klebsiella pneumoniae DM4299. It is filed as cell-based. The method, then: as §1
The subject of data set [8] is Escherichia coli ATCC27922. It is filed as cell-based. The method, then:
as §1

The nature of data set [9]: in vitro. It is filed as cell-based, rabbit. As to conditions: New Zealand white, rabbit, pH 7. The method, then: as §4
The test system of a further data set is S. aureus (DM4001). In words: Membrane damage, LIVE/DEAD BacLight assay. It is filed as cell-based, Staphylococcus aureus. To be noted: FIG. 7. The method, then: The extent of bacterial membrane damage was assessed using LIVE/DEAD BacLight Bacterial Viability Kit (Molecular Probes, Invitrogen) which utilises both SYTO 9 green-fluorescent nucleic acid stain and the red-fluorescent nucleic acid stain, propidium iodide in their different ability to penetrate healthy bacterial cells. SYTO9 dye could penetrate bacteria with intact and damaged membrane but propidium iodide could only penetrate bacteria with damaged bacteria thereby causing a reduction in the SYTO 9 stain's fluorescence when both dyes are present. Thus, bacteria with intact cell membranes stain fluorescent green whereas bacteria with damaged membranes stain fluorescent red. Briefly, clinical isolate S. aureus (DM4001) was collected at an early exponential growth phase and washed twice with 0.9% saline solution (live culture). A portion of the culture was resuspended in 70% 2-propanol to prepare dead culture with fully permeabilised membrane. […] Using TECAN infinite 200 microplate reader, the wavelength for excitation was fixed at 485 nm to obtain the emission spectrum from 500 nm to 700 nm. The green to red ratio (G/R) was determined using the following formula: [formula] % of membrane damage was quantified using a G/R ratio standard curve generated using bacterial mixture of 0, 10%, 50%, 90% and 100% live culture suspension. […]

Data set [10] in a line: Dissolution in PBS for hemolytic assay. It is filed as physicochemical. The method, then:
as §4

Take `CCCCCCCC(=O)N[C@@H](CCCNC(=N)N)C(=O)NCC(=O)N[C@@H](CCCNC(=N)N)C(=O)N[C@@H](CCCCN)C(=O)N[C@H](C(=O)N[C@H](C(=O)N[C@@H](CCCNC(=N)N)C(=O)N[C@@H](CCCNC(=N)N)C(=O)NCCCC[C@H](NC(=O)[C@H](CCCNC(=N)N)NC(=O)[C@H](CCCNC(=N)N)NC(=O)[C@@H](NC(=O)[C@@H](NC(=O)[C@H](CCCCN)NC(=O)[C@H](CCCNC(=N)N)NC(=O)CNC(=O)[C@H](CCCNC(=N)N)NC(=O)CCCCCCC)C(C)C)C(C)C)C(=O)N[C@@H](CCCCN)C(=O)O)C(C)C)C(C)C` [Peptide C8-V2D, (C7H15—CO—NH—RGRKVVRR)2KK] (I: Octanoyl-RGRKVVRRKK-OH / II: Octanoyl-RGRKVVRR; amide I:9-II:C): the MIC against Pseudomonas aeruginosa was 2.46 µM (≈ 6.26 µg/mL); in the data set with Staphylococcus aureus it was 2.46 µM (≈ 6.26 µg/mL); in data set [1], 1.23 µM (≈ 3.13 µg/mL); in data set [7], 2.46 µM (≈ 6.26 µg/mL); in data set [8] it was 4.92 µM (≈ 12.5 µg/mL). For the same molecule, in data set [2], the MTD at 96 h is no less than 3 mg/kg. For the same molecule, the CC50 at 4 h is greater than 2 mM in the data set “in vitro [3]” and greater than 3 mM in “in vitro [5]”. Moreover, the MTD at 24 h in [4] (Intravenous (i.v.)) was determined as 6.25 mg/kg; in data set [4] (ip, Intraperitoneal (i.p.)), 100 mg/kg. Also, the HC10 in data set [6] (red cells of rabbit, 1 h) was greater than 2000 µg/mL.
Regarding `CCCCCCCCCC(=O)N[C@@H](CCCNC(=N)N)C(=O)NCC(=O)N[C@@H](CCCNC(=N)N)C(=O)N[C@@H](CCCCN)C(=O)N[C@H](C(=O)N[C@H](C(=O)N[C@@H](CCCNC(=N)N)C(=O)N[C@@H](CCCNC(=N)N)C(=O)NCCCC[C@H](NC(=O)[C@H](CCCNC(=N)N)NC(=O)[C@H](CCCNC(=N)N)NC(=O)[C@@H](NC(=O)[C@@H](NC(=O)[C@H](CCCCN)NC(=O)[C@H](CCCNC(=N)N)NC(=O)CNC(=O)[C@H](CCCNC(=N)N)NC(=O)CCCCCCCCC)C(C)C)C(C)C)C(=O)N[C@@H](CCCCN)C(=O)O)C(C)C)C(C)C` [Peptide C10-V2D, (C9H19—CO—NH—RGRKVVRR)2KK] (I: Decanoyl-RGRKVVRRKK-OH / II: Decanoyl-RGRKVVRR; amide I:9-II:C), the MIC against Pseudomonas aeruginosa was 2.40 µM (≈ 6.24 µg/mL); with Staphylococcus aureus, 2.40 µM (≈ 6.24 µg/mL); in [1], 1.20 µM (≈ 3.12 µg/mL); in data set [7] it was 2.40 µM (≈ 6.24 µg/mL); in data set [8] it was 4.80 µM (≈ 12.5 µg/mL). Also, the hemolysis at 1 h, 20 mg/mL in “in vitro [9]” was 3.3%. For the same molecule, the HC10 in data set [6] is >2000^a ug/mL.
With `CCCCCCCCCCCCCCCC(=O)N[C@@H](CCCNC(=N)N)C(=O)NCC(=O)N[C@@H](CCCNC(=N)N)C(=O)N[C@@H](CCCCN)C(=O)N[C@H](C(=O)N[C@H](C(=O)NCCCC[C@H](NC(=O)[C@@H](NC(=O)[C@@H](NC(=O)[C@H](CCCCN)NC(=O)[C@H](CCCNC(=N)N)NC(=O)CNC(=O)[C@H](CCCNC(=N)N)NC(=O)CCCCCCCCCCCCCCC)C(C)C)C(C)C)C(=O)N[C@@H](CCCCN)C(=O)O)C(C)C)C(C)C` [Peptide C16-V2D, (C15H31—CO—NH—RGRKVV)2KK] (I: Palmitoyl-RGRKVVKK-OH / II: Palmitoyl-RGRKVV; amide I:7-II:C; C-terminus assumed), the minimum inhibitory concentration (MIC) was greater than 36.13 µM against Pseudomonas aeruginosa; 36.13 µM (≈ 77.4 µg/mL) against Staphylococcus aureus; 18.07 µM (≈ 38.7 µg/mL) in data set [1]; greater than 36.13 µM in data set [7]; 9.03 µM (≈ 19.4 µg/mL) in data set [8]. Moreover, in the data set with S. aureus (DM4001), the membrane integrity result is on record as “reduced membrane integrity”. The HC10 result in data set [6] was “^c114.0 ± 37.9 ug/mL”. Further, the “dissolution in PBS” value in data set [10] is “^cValue in DMF. C16V2D could not dissolve in PBS”.
